Source: US20160206631A1, “OXYSTEROLS THAT ACTIVATE LIVER X RECEPTOR SIGNALING AND INHIBIT HEDGEHOG SIGNALING” (THE REGENTS OF THE UNIVERSITY OF CALIFORNIA, priority 2010, published 2016)

Assays:
[1] = test system: Hedgehog pathway; conditions: cited from earlier work
[2] = test system: human NCI-H929 multiple myeloma cell line; assay: Clonogenic growth of NCI-H929 multiple myeloma cells; assay type: cell-based; conditions: 1 μM, 96 hours, colonies after 10 days (FIG. 6)
Protocol: NCI-11929 multiple myeloma cells were treated for 96 hours with control vehicle or 1 μM of each compound as shown. Next, drugs were removed and cells were plated in methylcellulose. Clonogenic growth of colonies determined after 10 days. Data are reported as percentage of colony number normalized to control group.
In order to examine the effect of LXR activation on the clonogenic growth of multiple myeloma cells, the human NCI-H929 multiple myeloma cell line was used.

[3] = test system: C3H10T1/2 embryonic fibroblasts; assay: CAPAN-1 conditioned-medium-induced alkaline phosphatase activity in C3H10T1/2 cells; assay type: cell-based; conditions: C3H10T1/2, 3 days; TO 2 μM, Oxy16 5 μM, Cyc 4 μM (FIG. 11)
Protocol: Next, cells were treated with DMEM containing 5% FBS or CAPAN-1 CM in the presence or absence of TO, Oxy16, or Cyc. After 3 days, alkaline phosphatase activity assay using whole cell lysates was performed.
(§1) In order to assess the functional activity of Hh proteins produced by CAPAN-1 cells, we examined the ability of CM to induce Hh target gene expression in C3H10T1/2 embryonic fibroblasts.

[4] = test system: Saos-2 human osteosarcoma cells; assay: Anchorage-independent clonogenic growth of Saos-2 cells; assay type: cell-based; conditions: for clonogenic growth: Saos-2, 1 μM, 72 hours, colonies after 10 days (FIG. 4)
Protocol: (§2) Next, cells were harvested and examined for clonogenic growth in non-adherent plates after 10 days of culturing. Data from a representative of two separate experiments are reported as the relative number of colonies formed by cells treated with LXR ligands relative to cells treated with control vehicle (% of control).
(§3) We examined whether LXR activation inhibits the clonogenic growth of human osteosarcoma cells using an anchorage-independent cell growth assay. Saos-2 and U2OS cells were seeded in standard tissue culture plates and treated for 72 hours with control vehicle or 1 μM of TO, 22R, or Oxy16. Following treatments with LXR ligands, the drugs were removed and the cells harvested and plated in methylcellulose media in non-adherent plates (Costar) and the cell colonies formed after 10 days were counted.

[5] = test system: LXR; assay: LXR target gene expression by Q-RT-PCR in Saos-2 osteosarcoma cells; assay type: cell-based, human; conditions: for expression of LXR target genes ABCA1 and SREBP1c: Saos-2 cells (FIG. 2, 72 hours for TO)
Description: Data from a representative experiment are reported as the Data from a representative experiment are reported as the mean of triplicate determinations±SD relative to the expression level of LXRα (p<0.001 for control vs. both concentrations of TO for ABCA1 and SREBP1c mRNA).
Culturing the cells in varying serum (FBS) concentrations from 1% to 10% had no effect on LXRs or LXR target gene expression levels at baseline.

[6] = test system: NCI-H929 multiple myeloma cancer stem cells; assay: Percentage of cancer stem cells (CD138 negative, ALDH positive) in NCI-H929 cultures by flow cytometry; assay type: cell-based, human; conditions: 1 μM, 96 hours (FIGS. 7, 8)
Protocol: NCI-H929 multiple myeloma cells were treated for 96 hours with control vehicle or 1 μM of each compound as shown. Next, percentage of CD138negative cells in the same number of starting cells from each group was determined by flow cytometry.
NCI-H929 multiple myeloma cells were treated for 96 hours with control vehicle or 1 μM of each compound as shown. Next, percentage of ALDH+ cells in the same number of starting cells from each group was determined by flow cytometry.

[7] = test system: LXR; assay: LXR target gene expression in C3H10T1/2 cells; conditions: C3H10T1/2, 48 hours
Description: Next we examined whether LXR activation by LXR agonists inhibits CAPAN-1 CM-induced Hh target gene expression in fibroblastic cells.
As noted above, specific oxysterols are thought to be physiological ligands of LXRs that are classified as partial agonists based on their differential effects on the interaction of LXRs with co-activators and co-repressors compared to those induced by the full LXR agonist TO.

[8] = test system: REH human ALL cells; assay: Clonogenic growth of REH ALL cells; assay type: cell-based
Protocol: (§4) Following treatment cells were harvested by washing cells twice with phosphate buffered saline (PBS) followed by enzymatically detaching with trypsin/EDTA. Cells were collected then washed twice with PBS. Cells were counted then resuspended in 500 uL of media. The volume of cells required for 2,000 cells from the control group was removed from each group then mixed with methylcellulose (1.2%) containing 30% fetal bovine serum, 1% bovine serum albumin, 10^-4 M 2-mercaptoethanol, and 2 mM L-glutamine. Cells were plated in low-attachment 6 well plates (1 ml/well), each group being plated in triplicate. Following 10 days of incubation, tumor cell colonies consisting of >40 cells were counted using an inverted microscope. Results are presented as the percentage of colonies from each treatment group compared to the control group (Table 2).
A similar experiment to that shown above for pancreatic cancer cells was performed using the human ALL cells, REH (Table 3).

[9] = test system: Hedgehog signaling; assay: CAPAN-1 conditioned-medium-induced Hh target gene expression (Ptch1, HHIP, Gli1) in C3H10T1/2 cells; assay type: cell-based; conditions: C3H10T1/2, 48 hours; TO 2 μM, Oxy16 5 μM, Cyc 4 μM (FIG. 10)
Protocol: Next, cells were treated with DMEM containing 5% […] or CAPAN-1 CM in the presence or absence of TO, Oxy16, or Cyc. After 48 hours, RNA was extracted and analyzed by Q-RT-PCR for the expression of Hh target genes Ptch1, HHIP, and Gli1 and normalized to GAPDH expression.
As noted above, Hh signaling appears to play an important role in the initiation and progression of pancreatic cancer (26), and the inhibition of HE signaling using small molecule antagonists inhibits pancreatic cancer cells from growing in vitro and in vivo (50). […] Subsequently, Hh signaling in stromal cells provides a permissive milieu for tumor cells to grow. […] In this Example, we examine this possibility using an in vitro model system in which Hh signaling is induced in C3H10T1/2 embryonic fibroblasts by conditioned-medium (CM) from CAPAN-1 human pancreatic cancer cells.
as §1

[10] = test system: LXR; assay: ABCA1 (LXR target gene) expression by Q-RT-PCR in M2-10B4 bone marrow stromal cells
Protocol: This was measured by the ability of these molecules to induce the expression of LXR-target genes, including ABCA1, in M2-10B4 bone marrow stromal cells (MSC) after 48 hours of treatment (Table 1).

[11] = test system: U2OS human osteosarcoma cells; assay: Anchorage-independent clonogenic growth of U2OS cells; assay type: cell-based; conditions: 1 μM, 72 hours, colonies after 10 days (FIG. 4)
Protocol: as §2, §3

[12] = test system: human primary multiple myeloma cells derived from patients; assay: Clonogenic growth of primary multiple myeloma cells from patients in methylcellulose; assay type: cell-based; conditions: 1 μM, 96 hours, CD34+ and CD138+ depleted bone marrow mononuclear cells
[13] = test system: L3.6p1 human pancreatic cancer cells; assay: Clonogenic growth of L3.6p1 pancreatic cancer cells in methylcellulose; assay type: cell-based; conditions: 72 hours treatment, colonies counted after 10 days
Protocol: as §4

[14] = test system: LXR; assay: LXR target gene expression in human pancreatic cancer cells
[15] = test system: human pancreatic cancer cells; assay: Clonogenic growth of human pancreatic cancer cells in vitro; assay type: cell-based
[16] = test system: CAPAN-1 human pancreatic cancer cells; assay: Ihh and Shh mRNA expression in CAPAN-1 cells; assay type: cell-based; conditions: cyclopamine 4 μM, TO 2-5 μM, data not shown
Protocol: Expression of Shh and Ihh mRNA in human cultures of pancreatic cancer cells, CAPAN-1, L3.6p1, and E3LZ10.7 were analyzed by Q-RT-PCR and normalized to GAPDH expression. Cells were cultured in DMEM containing 10% FBS and RNA was extracted 3 days after seeding. Data from a representative experiment are reported as the mean of triplicate determinations±SD (p<0.001 for CAPAN-1 vs. other two cell types for Shh and 11 h mRNA expression).
Culturing CAPAN-1 cells in 1% vs. 10% FBS had no effects on their level of mRNA expression for 11th and Shh (data not shown), and treatment of CAPAN-1 cells with the Hh pathway inhibitor cyclopamine (4 μM) or the LXR agonist TO (2-5 μM) had no effect on the expression of Ihh or Shh mRNA in these cells (data not shown).

[17] = test system: Hedgehog signaling pathway; assay: Ptch1 mRNA expression (Hh target gene) by Q-RT-PCR in Saos-2 cells; assay type: cell-based, human; conditions: Saos-2, 2% FBS, 72 hours; 2 or 4 τM TO, 4 μM cyclopamine (FIG. 5)
Protocol: Saos-2 cells were cultured in medium containing 2% FBS and were treated at confluence with 4 μM Cyc, 2 or 4 τM TO, alone or in combination for 72 hours. Expression of Ptch1 and Gli1 (data not shown) mRNA was measured by Q-RT-PCR and normalized to GAPDH.

SMILES	net effect of the LXR agonist on the Hedgehog pathway [1]	clonogenic growth [2]	CAPAN-1 CM-induced ALP activity [3]	clonogenic growth [4]	expression of LXR target genes ABCA1 and SREBP1c [5]	percentage of cancer stem cells (CD138 negative and ALDH positive cells) [6]	Normalized Colony # (% of control) ([8]; 0.1 μM)	Raw Colony # ([8]; 0.1 μM)	Normalized Colony # (% of control) ([8]; 0.5 μM)	Raw Colony # ([8]; 0.5 μM)	CAPAN-1 CM-induced expression of Hh target genes Ptch1, Gli1, HHIP [9]	clonogenic growth [11]	colony formation (% of control) ([12]; Specimen # 1)	colony formation (% of control) ([12]; Specimen # 2)	Normalized Colony # (% of control) ([13]; 5 μM)	Raw Colony # ([13]; 5 μM)	Normalized Colony # (% of control) ([13]; 10 μM)	Raw Colony # ([13]; 10 μM)	other results
C=C(C)CCC[C@](C)(O)C1CCC2C3CC=C4C[C@@H](O)CC[C@]4(C)C3CC[C@@]21C (stereo partly drawn) [Oxy 13]	leave the Hedgehog pathway active	–	–	–	–	–	–	–	–	–	–	–	–	–	–	–	–	–	–
CC(C)CC[C@@H](O)[C@](C)(O)[C@H]1CC[C@H]2[C@@H]3CC=C4C[C@@H](O)CC[C@]4(C)[C@H]3CC[C@]12C [Oxy16, (2R,3R)-2-((3S,8S,9S,10R,13S,14S,17S)-3-Hydroxy-10,13-dimethyl-2,3,4,7,8,9,10,11, 12,13,14,15,16,17-tetradecahydro-1H-cyclopenta[a]phenanthren-17-yl)-6-methyl-heptane-2,3-diol]	–	inhibited clonogenic growth	inhibited	significant inhibition	significant expression	significantly reduced	71 % of control	65	15 % of control	14	inhibited	significant inhibition	13 % of control	20 % of control	22 % of control	53	10 % of control	24	potency in blocking clonogenic growth of osteosarcoma cells versus naturally occurring counterparts ([4]; osteosarcoma cells, compared with 22R and 20S): more potent than its naturally occurring counterparts; induction of LXR target genes ABCA1 and ABCG1 ([5]; osteosarcoma cells, preliminary studies (FIG. 3)): strong induction; induction of ABCA1 and ABCG1 [7]: induction; fold induction at 2 µM ([10]; M210B4, 48 h, read-out: ABCA1 gene expression, Fold Induction ± SD): 2.1 ± 0.5; LXR signaling activation ([10]; bone marrow stromal cells): Activate LXR Signaling
C[C@H](CCCC(C)(C)O)[C@H]1CC[C@H]2[C@@H]3CC=C4C[C@@H](O)CC[C@]4(C)[C@H]3CC[C@]12C [25-hydroxycholesterol]	leave the Hedgehog pathway active	–	–	–	–	–	–	–	–	–	–	–	–	–	–	–	–	–	–
O=S(=O)(c1ccccc1)N(CC(F)(F)F)c1ccc(C(O)(C(F)(F)F)C(F)(F)F)cc1 [TO, TO901317, reference compound]	–	inhibited clonogenic growth	significantly inhibited	significant inhibition	robust expression	significantly reduced	48 % of control	44	37 % of control	34	significantly inhibited	significant inhibition	27 % of control	18 % of control	41 % of control	100	15 % of control	37	expression of LXR target genes [14]: induce the expression of LXR target genes; clonogenic growth [15]: significantly inhibit; expression of Ihh or Shh mRNA [16]: no effect; Ptch1 mRNA expression [17]: significant inhibition
